Measured values taken from patent US20160058752A1, “TOPICAL […]-AFFECTIVE (TPNA) THERAPY FOR N[…]” (AFGIN PHARMA, LLC, priority 2014, published 2016).

What was measured:
[1] = system: dopamine, norepinephrine, and serotonin receptors; conditions: topical
free nerve endings = assay: Onset of clinical effect of TPNA therapy; assay type: in vivo, human; conditions: topical
[2] = after topical application in cold cream; cited from earlier work
[3] = system: local peripheral and generalized pain; assay: Nuchal (BONATH) application of compounded opioids for pain relief in patients; conditions: patients tapering off oral narcotics, nuchal delivery as only pain therapy
Source text: Previously described has is the “nuchal” (back of the neck at the hairline, or “BONATH”) application of triptans (Migraderm using sumatriptan) for migraine headache, tizanidine (Tizoderm) for cervical spasm and tension headache; and, apomorphine for the Parkinson's disease symptoms of tremor, rigidity, speech difficulties, and other “non-motor” symptoms.

Structure (SMILES) | effect on symptoms of neuropathic pain and other symptoms of nerve dysfunction [1] | narcotic withdrawal symptoms [3] | other results
CN1CCc2cccc3c2[C@H]1Cc1ccc(O)c(O)c1-3 [apomorphine] | treat symptoms of neuropathic pain |  | onset of clinical effect (free nerve endings): 10 to 15 min
NCCc1ccc(O)c(O)c1 [dopamine] | treat symptoms of neuropathic pain |  | 
CN1CC[C@]23c4c5ccc(O)c4O[C@H]2[C@@H](O)C=C[C@H]3[C@H]1C5 [morphine] |  |  | morphine levels in blood or urine [2]: not detected
COc1cccc(C2(O)CCCCC2CN(C)C)c1 (stereo not drawn) [tramadol] |  | no significant narcotic withdrawal symptoms | 
CN1CC[C@]23c4c5ccc(O)c4O[C@H]2[C@@H](O)C=C[C@H]3[C@H]1C5.O=S(=O)(O)O [morphine sulfate] |  | no significant narcotic withdrawal symptoms | 
